This note sets out measurements from PubChem BioAssay (NCI).

Common to all, as to assay: inhibition of tumour cell growth, NCI panel, 48 h
Experiment [1] deals with RPMI-8226 leukemia.
Experiment [2] concerns HCT-15 colon.
Experiment [3] has as its system SF-295 CNS.
Experiment [4] has as its system NCI-H522 lung.
Experiment [5] concerns HOP-62 NSCLC.
Experiment [6] concerns OVCAR-8 ovarian.
For experiment [7], the system named is NCI-H460 lung.
For experiment [8], the system named is MCF7 breast.
Experiment [9] deals with KM12 colon.
Experiment [10] concerns TK-10 renal.

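Step 1: Grow cells in 96-well plates. Step 2: Expose to compound for 48 hours at 5 concentrations. Step 3: Interpolate endpoints linearly; if unreached, use highest concentration. The concentration for 50% growth inhibition is given as GI50. TGI: concentration producing complete growth inhibition.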

Take `Oc1cc(Cc2ccccc2)c(Cc2ccccc2)cc1O`: the TGI in experiment [1], in [2], in [3], in experiment [4], in experiment [5] and in [6] was more than 10 µM each time. Besides, the TGI in experiment [7], in [8] and in experiment [9] was more than 10 µM each time.
Take `CNC(=S)Nc1ccc(OC)c2ccccc12`: the TGI is more than 10 µM in experiment [10]; more than 10 µM in experiment [1]; more than 10 µM in experiment [2]; 5.77 µM in experiment [3]; more than 10 µM in experiment [4]; more than 10 µM in experiment [5]. Besides, the TGI in experiment [6], in experiment [8] and in [9] was more than 10 µM throughout.
`Cn1ccnc1CCc1c(Cl)cccc1Cl`: the TGI in experiment [10], in experiment [1], in [2], in [3], in experiment [4] and in experiment [5] was more than 100 µM in each case. Besides, the TGI in experiment [6], in [7] and in experiment [9] was more than 100 µM in each case.
On to `O=C(/C=C/c1ccccc1)Oc1cccc2cccnc12`, for which the TGI is more than 100 µM in experiment [10]; more than 100 µM in [1]; 26.2 µM in experiment [2]; more than 100 µM in experiment [3]; 5.31 µM in experiment [4]; more than 100 µM in [5]. Also, the TGI in [6] is more than 62.2 µM; in experiment [7], 35.4 µM; in [9], 32.1 µM.
Turning to `C[N+](C)(C)CCC(=O)CC[N+](C)(C)C`, the TGI in [10] is 34.6 µM; in experiment [1] it was 21.6 µM; in experiment [2] it was 42.9 µM; in experiment [3] it was 34.5 µM; in experiment [4], 29.4 µM; in [5], more than 100 µM. Also, the TGI in experiment [6] was found to be 44 µM; in experiment [7], 76.9 µM; in experiment [9], 42.2 µM.
For `CC[O-].CC[O-].O=C([CH-]C(=O)c1ccccc1)CCCCCCCCC(=O)[CH-]C(=O)c1ccccc1.[Ti+4]`, the GI50 in [10] is more than 100 µM; in experiment [1], more than 100 µM; in [2], more than 100 µM; in experiment [3], 1.52 µM; in [4] it was more than 100 µM; in experiment [5] it was more than 100 µM. For the same compound, the GI50 in experiment [6] is 52.1 µM; in experiment [7], more than 100 µM; in [9], 0.032 µM. For the same compound, the TGI in [10], in experiment [1], in experiment [2], in experiment [3], in [4] and in experiment [5] was more than 100 µM throughout. Also, the TGI is more than 100 µM in [6], more than 100 µM in [7] and 3.25 µM in experiment [9].
For `CC1=C(C(=O)Nc2ccccc2C)C(c2ccc(Cl)cc2)C(C(=O)Nc2ccccc2C)=C(C)N1`, the TGI in experiment [10], in [1], in experiment [2], in [3], in experiment [4] and in experiment [5] was more than 100 µM each time. Also, the TGI in experiment [6], in [7] and in [9] was more than 100 µM throughout.
Regarding `C=C(c1ccccc1)C1(O)CCCCC1N` (stereo unspecified), the TGI in [10], in experiment [1], in [2], in experiment [3], in [4] and in [5] was more than 100 µM throughout. Also, the TGI in experiment [6], in experiment [7] and in experiment [9] was more than 100 µM each time.
Consider `CN1CCN(C(=S)N(C)C(=O)c2ccco2)CC1`, for which the TGI in experiment [10], in experiment [1], in experiment [2], in experiment [3], in experiment [4] and in experiment [6] was more than 100 µM each time. Further, the TGI in experiment [7], in experiment [8] and in [9] was more than 100 µM in each case.
Regarding `O=C(COc1ccccc1Cl)N1N=C(c2ccc(Cl)cc2)CC1(O)c1ccccc1` (stereo unspecified), the TGI in experiment [10], in experiment [1], in [2], in experiment [3], in experiment [4] and in [5] was more than 100 µM each time. In addition, the TGI in experiment [6], in [7] and in experiment [9] was more than 100 µM each time.
`O=C1Nc2ccccc2C1(O)C/C(=N/O)c1ccc2ccccc2c1` (stereo unspecified): the TGI in experiment [10], in experiment [1], in experiment [2], in [3], in experiment [4] and in experiment [5] was more than 100 µM in each case. Moreover, the TGI in experiment [6], in [7] and in [9] was more than 100 µM each time.
Take `O=C1C=CC(=O)c2c1ccc1c3ccccc3n(Cc3ccc([N+](=O)[O-])cc3)c21`: the TGI is more than 100 µM in [10]; more than 100 µM in experiment [2]; more than 100 µM in experiment [3]; 55.4 µM in experiment [4]; more than 100 µM in [5]; more than 100 µM in experiment [6]. Also, the TGI in [7], in experiment [8] and in experiment [9] was more than 100 µM in each case.
Consider `CCOC(=O)NC(=O)c1cn(CCN2CCN(C(=O)NCCCCCCNC(=O)N3CCN(CCn4cc(C(=O)NC(=O)OCC)c(=O)[nH]c4=O)CC3)CC2)c(=O)[nH]c1=O`, for which the TGI in experiment [10], in experiment [1], in [2], in [3], in [4] and in experiment [5] was more than 100 µM in each case. Further, the TGI in [6], in [7] and in experiment [9] was more than 100 µM in each case.
